# ChEMBL document CHEMBL5252547, “A review of salvinorin analogs and their kappa-opioid receptor activity” (Bioorg Med Chem Lett, 2018)
# Biological target: Kappa-type opioid receptor (Homo sapiens, UniProt P41145)
# Experiment: Inhibition of human kappa opioid receptor assessed as inhibition constant
# Kappa-type opioid receptor, sequence (P41145 whole entry): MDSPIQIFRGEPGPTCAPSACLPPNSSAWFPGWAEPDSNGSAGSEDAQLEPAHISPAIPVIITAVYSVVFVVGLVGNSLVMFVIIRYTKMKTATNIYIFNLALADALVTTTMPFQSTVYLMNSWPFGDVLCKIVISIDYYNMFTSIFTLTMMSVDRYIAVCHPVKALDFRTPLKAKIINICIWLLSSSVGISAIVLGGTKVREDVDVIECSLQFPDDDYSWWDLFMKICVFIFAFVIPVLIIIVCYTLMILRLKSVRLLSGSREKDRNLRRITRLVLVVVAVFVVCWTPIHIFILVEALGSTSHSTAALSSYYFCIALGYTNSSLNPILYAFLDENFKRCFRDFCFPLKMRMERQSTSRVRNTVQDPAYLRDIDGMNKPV
structure (smiles),measurement,value
COC(=O)[C@@H]1C[C@H](OC(C)=O)C(=O)[C@H]2[C@@]1(C)CC[C@H]1C(=O)O[C@H](C(=O)Nc3ccccc3)C[C@]21C,Ki,1000 nM
